Data taken from ChEMBL document CHEMBL3046952, “Stereoselective synthesis of 2-amino-1-hydroxy-3-phenylpropylphosphonic acid” (1996).
Activity calls are given as the source filed them. The calls are words filed in the database; no cut-off is given here.

How the values were obtained:
[1] = Inhibition of cytosolic aminopeptidase
Cucumis sativus [2] = test: Inhibition of growth of Cucumis sativus (cucumber) root at 0.05 mM relative to control; format: functional; details: read-out: GI
Lepidium sativum [3] = test: Inhibition of growth of Lepidium sativum root at 0.15 mM relative to control; format: functional; details: read-out: GI
Cucumis sativus [4] = test: Inhibition of growth of Cucumis sativus (cucumber) hypocotyl at 0.15 mM relative to control; format: functional; details: read-out: GI
Lepidium sativum [5] = test: Inhibition of growth of Lepidium sativum root at 0.05 mM relative to control; format: functional; details: read-out: GI
Cucumis sativus [6] = test: Inhibition of growth of Cucumis sativus (cucumber) hypocotyl at 0.5 mM relative to control; format: functional; details: read-out: GI
Lepidium sativum [7] = test: Inhibition of growth of Lepidium sativum hypocotyl at 0.5 mM relative to control; format: functional; details: read-out: GI
Lepidium sativum [8] = test: Inhibition of growth of Lepidium sativum hypocotyl at 1.5 mM relative to control; format: functional; details: read-out: GI
[9] = Inhibition of microsomal aminopeptidase
Cucumis sativus [10] = test: Inhibition of growth of Cucumis sativus (cucumber) root at 0.5 mM relative to control; format: functional; details: read-out: GI
Lepidium sativum [11] = test: Inhibition of growth of Lepidium sativum root at 0.5 mM relative to control; format: functional; details: read-out: GI
Lepidium sativum [12] = test: Inhibition of growth of Lepidium sativum hypocotyl at 0.15 mM relative to control; format: functional; details: read-out: GI
Cucumis sativus [13] = test: Inhibition of growth of Cucumis sativus (cucumber) root at 0.15 mM relative to control; format: functional; details: read-out: GI
Cucumis sativus [14] = test: Inhibition of growth of Cucumis sativus (cucumber) hypocotyl at 1.5 mM relative to control; format: functional; details: read-out: GI
Lepidium sativum [15] = test: Inhibition of growth of Lepidium sativum root at 1.5 mM relative to control; format: functional; details: read-out: GI
Cucumis sativus [16] = test: Inhibition of growth of Cucumis sativus (cucumber) hypocotyl at 0.05 mM relative to control; format: functional; details: read-out: GI
Lepidium sativum [17] = test: Inhibition of growth of Lepidium sativum hypocotyl at 0.05 mM relative to control; format: functional; details: read-out: GI
Cucumis sativus [18] = test: Inhibition of growth of Cucumis sativus (cucumber) root at 1.5 mM relative to control; format: functional; details: read-out: GI

Compound: N[C@@H](Cc1ccccc1)[C@H](O)P(=O)(O)O (stereo in doubt)
- inhibition [1]: inactive
- inhibition of growth at 50 µM (Cucumis sativus [2]): 69%
- inhibition of growth at 150 µM (Lepidium sativum [3]): 86%
- inhibition of growth at 150 µM (Cucumis sativus [4]): 45%
- inhibition of growth at 50 µM (Lepidium sativum [5]): 82%
- inhibition of growth at 500 µM (Cucumis sativus [6]): 56%
- inhibition of growth at 500 µM (Lepidium sativum [7]): 64%
- inhibition of growth at 1500 µM (Lepidium sativum [8]): 68%
- inhibition [9]: inactive
- inhibition of growth at 500 µM (Cucumis sativus [10]): 81%
- inhibition of growth at 500 µM (Lepidium sativum [11]): 87%
- inhibition of growth at 150 µM (Lepidium sativum [12]): 46%
- inhibition of growth at 150 µM (Cucumis sativus [13]): 75%
- inhibition of growth at 1500 µM (Cucumis sativus [14]): 64%
- inhibition of growth at 1500 µM (Lepidium sativum [15]): 92%
- inhibition of growth at 50 µM (Cucumis sativus [16]): 36%
- inhibition of growth at 50 µM (Lepidium sativum [17]): 22%
- inhibition of growth at 1500 µM (Cucumis sativus [18]): 83%

Compound: N[C@H](Cc1ccccc1)[C@@H](O)P(=O)(O)O (stereo in doubt)
- inhibition [1]: inactive
- inhibition of growth at 50 µM (Cucumis sativus [2]): 51%
- inhibition of growth at 150 µM (Lepidium sativum [3]): 66%
- inhibition of growth at 150 µM (Cucumis sativus [4]): 33%
- inhibition of growth at 50 µM (Lepidium sativum [5]): 36%
- inhibition of growth at 500 µM (Cucumis sativus [6]): 37%
- inhibition of growth at 1500 µM (Lepidium sativum [8]): 54%
- inhibition [9]: inactive
- inhibition of growth at 500 µM (Cucumis sativus [10]): 73%
- inhibition of growth at 500 µM (Lepidium sativum [11]): 74%
- inhibition of growth at 150 µM (Lepidium sativum [12]): 9%
- inhibition of growth at 150 µM (Cucumis sativus [13]): 68%
- inhibition of growth at 1500 µM (Cucumis sativus [14]): 49%
- inhibition of growth at 1500 µM (Lepidium sativum [15]): 88%
- inhibition of growth at 50 µM (Cucumis sativus [16]): 23%
- inhibition of growth at 50 µM (Lepidium sativum [17]): 16%
- inhibition of growth at 1500 µM (Cucumis sativus [18]): 80%

Compound: O=C(O)CNCP(=O)(O)O [GLYPHOSATE]
- inhibition of growth at 50 µM (Cucumis sativus [2]): 60%
- inhibition of growth at 150 µM (Lepidium sativum [3]): 88%
- inhibition of growth at 50 µM (Lepidium sativum [5]): 86%
- inhibition of growth at 500 µM (Lepidium sativum [7]): 20%
- inhibition of growth at 1500 µM (Lepidium sativum [8]): 44%
- inhibition of growth at 500 µM (Cucumis sativus [10]): 78%
- inhibition of growth at 500 µM (Lepidium sativum [11]): 90%
- inhibition of growth at 150 µM (Lepidium sativum [12]): 16%
- inhibition of growth at 150 µM (Cucumis sativus [13]): 71%
- inhibition of growth at 1500 µM (Cucumis sativus [14]): 22%
- inhibition of growth at 1500 µM (Lepidium sativum [15]): 93%
- inhibition of growth at 50 µM (Lepidium sativum [17]): 13%
- inhibition of growth at 1500 µM (Cucumis sativus [18]): 84%
